# Assay results taken from paper PMC9203742 (Nature Communications, 2022).
# “And” between values parts separate entries of the source, which are not always exact repeats. Identical values can stand only once.
# Key:
# [1] = system: HEK293 cells, vector control; experiment: Fura-2 Ca2+ imaging in HEK293 cells transfected with control vector (Vec); assay type: cell-based; conditions: Fig.1e; for Ca2+ response of individual cells (source data Suppl Fig1), Vec: test concentration or dose not given here
# Source text: Supplement 41467_2022_30828_MOESM6_ESM.zip/Ojima et al_source data_Main Figure.xlsx, sheet "Fig.1e" | column: Vec
# mGlu1 A59H/N264H mutant = target: T1, mGlu1 A59H/N264H mutant (Rattus norvegicus, UniProt P23385, A59H/N264H); experiment: Fura-2 Ca2+ imaging in HEK293 cells expressing mGlu1 A59H/N264H; assay type: cell-based
# T1 construct: expressed in transfected cells; host or cells: HEK293
# [2] = system: mGlu1 construct not given; experiment: Fura-2 Ca2+ imaging in HEK293 cells, source data Suppl Fig1, middle group (c9-c17); construct not given; assay type: cell-based, rat; conditions: single-cell values, cells #15-#20; middle group of third block
# Source text: (§1) Supplement 41467_2022_30828_MOESM6_ESM.zip/Ojima et al_source data_Suppl Fig.xlsx, sheet "Suppl Fig1" | column: Glu; NiCl2; CuCl2; ZnCl2; CdCl2; Na2PdCl2; Pd(bpy)
# mGlu1 K61H/N264H mutant = target: T2, mGlu1 K61H/N264H mutant (Rattus norvegicus, UniProt P23385, K61H/N264H); experiment: Fura-2 Ca2+ imaging in HEK293 cells expressing mGlu1 K61H/N264H; assay type: cell-based
# T2 construct: expressed in transfected cells; host or cells: HEK293
# WT mGlu1 = target: T3, WT mGlu1 (Rattus norvegicus, UniProt P23385); assay type: cell-based; note: test concentration or dose not given here
# T3 construct: expressed in transfected cells; host or cells: HEK293
# [3] = system: HEK293 cells, vector control; experiment: Fura-2 Ca2+ imaging in HEK293 cells transfected with control vector (Vec); assay type: cell-based; conditions: single-cell values #1-#20; for Ca2+ response of individual cells (source data Suppl Fig1), Vec: test concentration or dose not given here
# mGlu1 P58H/N264H mutant = target: T4, mGlu1 P58H/N264H mutant (Rattus norvegicus, UniProt P23385, N264H/P58H); experiment: Fura-2 Ca2+ imaging in HEK293 cells expressing mGlu1 P58H/N264H; assay type: cell-based
# T4 construct: expressed in transfected cells; host or cells: HEK293
# mGlu1 A59H/A265H mutant [4] = target: T5, mGlu1 A59H/A265H mutant (Rattus norvegicus, UniProt P23385, A265H/A59H); experiment: Fura-2 Ca2+ imaging in HEK293 cells expressing mGlu1 A59H/A265H; assay type: cell-based; conditions: Fig.1e
# T5 construct: expressed in transfected cells; host or cells: HEK293
# [5] = system: mGlu1 construct not given; experiment: Fura-2 Ca2+ imaging in HEK293 cells, source data Suppl Fig1, left group (c0-c8); construct not given; assay type: cell-based, rat; conditions: single-cell values, cells #15-#20; left group of third block
# Source text: as §1
# mGlu1 A59H/A265H mutant [6] = target: T5, mGlu1 A59H/A265H mutant; experiment: Fura-2 Ca2+ imaging in HEK293 cells expressing mGlu1 A59H/A265H; assay type: cell-based; conditions: single-cell values
# mGlu1 A59H/G266H mutant [7] = target: T6, mGlu1 A59H/G266H mutant (Rattus norvegicus, UniProt P23385, A59H/G266H); experiment: Fura-2 Ca2+ imaging in HEK293 cells expressing mGlu1 A59H/G266H; assay type: cell-based; conditions: Fig.1e; for Ca2+ response (delta ratio), A59H/G266H: test concentration or dose not given here
# T6 construct: expressed in transfected cells; host or cells: HEK293
# mGlu1 A59H/G266H mutant [8] = target: T6, mGlu1 A59H/G266H mutant; experiment: as above; assay type: cell-based; conditions: single-cell values
# mGlu1 P57H/N264H mutant = target: T7, mGlu1 P57H/N264H mutant (Rattus norvegicus, UniProt P23385, N264H/P57H); experiment: Fura-2 Ca2+ imaging in HEK293 cells expressing mGlu1 P57H/N264H; assay type: cell-based
# T7 construct: expressed in transfected cells; host or cells: HEK293
# mGlu1 E60H/N264H mutant = target: T8, mGlu1 E60H/N264H mutant (Rattus norvegicus, UniProt P23385, E60H/N264H); experiment: Fura-2 Ca2+ imaging in HEK293 cells expressing mGlu1 E60H/N264H; assay type: cell-based
# T8 construct: expressed in transfected cells; host or cells: HEK293
# [9] = system: mGlu1 construct not given; experiment: Fura-2 Ca2+ imaging in HEK293 cells, source data Suppl Fig1, right group (c18-c26); construct not given; assay type: cell-based, rat; conditions: single-cell values, cells #15-#20; right group of third block
# Source text: as §1
# T4 sequence (P23385 19-1199 P58H/N264H): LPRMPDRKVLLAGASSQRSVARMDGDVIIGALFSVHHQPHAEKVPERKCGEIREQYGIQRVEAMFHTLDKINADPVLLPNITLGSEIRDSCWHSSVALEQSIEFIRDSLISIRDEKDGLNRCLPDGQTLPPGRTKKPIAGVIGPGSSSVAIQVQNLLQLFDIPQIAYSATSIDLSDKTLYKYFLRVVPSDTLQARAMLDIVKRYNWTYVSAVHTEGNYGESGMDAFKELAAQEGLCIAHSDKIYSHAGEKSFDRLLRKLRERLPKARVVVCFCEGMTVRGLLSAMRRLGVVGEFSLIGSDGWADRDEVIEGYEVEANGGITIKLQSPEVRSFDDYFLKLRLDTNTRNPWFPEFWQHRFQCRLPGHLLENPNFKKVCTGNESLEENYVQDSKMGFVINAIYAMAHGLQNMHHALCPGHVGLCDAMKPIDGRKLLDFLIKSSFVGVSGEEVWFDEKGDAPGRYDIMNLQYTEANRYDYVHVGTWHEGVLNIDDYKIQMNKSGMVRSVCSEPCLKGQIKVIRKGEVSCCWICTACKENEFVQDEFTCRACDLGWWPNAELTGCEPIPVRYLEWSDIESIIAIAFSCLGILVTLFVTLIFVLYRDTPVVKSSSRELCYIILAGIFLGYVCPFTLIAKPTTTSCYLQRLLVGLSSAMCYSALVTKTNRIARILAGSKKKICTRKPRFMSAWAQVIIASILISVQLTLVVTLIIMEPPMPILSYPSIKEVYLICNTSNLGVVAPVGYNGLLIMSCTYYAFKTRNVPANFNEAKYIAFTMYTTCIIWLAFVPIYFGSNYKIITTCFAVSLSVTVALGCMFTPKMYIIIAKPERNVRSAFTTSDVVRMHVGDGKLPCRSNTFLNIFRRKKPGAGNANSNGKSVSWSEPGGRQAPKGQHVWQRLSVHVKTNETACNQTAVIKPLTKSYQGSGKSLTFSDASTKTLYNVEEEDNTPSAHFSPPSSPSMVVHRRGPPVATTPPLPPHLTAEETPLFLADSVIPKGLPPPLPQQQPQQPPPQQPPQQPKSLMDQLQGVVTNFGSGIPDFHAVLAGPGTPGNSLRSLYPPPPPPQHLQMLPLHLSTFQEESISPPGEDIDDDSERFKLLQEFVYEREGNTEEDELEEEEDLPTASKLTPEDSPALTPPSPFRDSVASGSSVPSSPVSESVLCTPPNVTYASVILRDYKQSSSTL
# T6 sequence (P23385 19-1199 A59H/G266H): as the sequence (P23385 19-1199 P58H/N264H) above, with H40P, A41H, H246N, G248H counted along it
# T2 sequence (P23385 19-1199 K61H/N264H): as the sequence (P23385 19-1199 P58H/N264H) above, with H40P, K43H counted along it
# T8 sequence (P23385 19-1199 E60H/N264H): as the sequence (P23385 19-1199 P58H/N264H) above, with H40P, E42H counted along it
# T3 sequence (P23385 19-1199): as the sequence (P23385 19-1199 P58H/N264H) above, with H40P, H246N counted along it
# T5 sequence (P23385 19-1199 A59H/A265H): as the sequence (P23385 19-1199 P58H/N264H) above, with H40P, A41H, H246N, A247H counted along it
# T1 sequence (P23385 19-1199 A59H/N264H): as the sequence (P23385 19-1199 P58H/N264H) above, with H40P, A41H counted along it
# T7 sequence (P23385 19-1199 P57H/N264H): as the sequence (P23385 19-1199 P58H/N264H) above, with P39H, H40P counted along it
compound,measurement,setting,value
[Cl][Ni][Cl] [NiCl2],"Ca2+ response (delta ratio), Vec",[1],-0.006595
same,"Ca2+ response (delta ratio), A59H/N264H",mGlu1 A59H/N264H mutant; Fig.1e,0.05683
same,"Ca2+ response of individual cells (source data Suppl Fig1), A59H/N264H","mGlu1 A59H/N264H mutant; single-cell values #1-#20, A59H/N264H",0.3729 and -0.001931 and -0.001046 and 0.01178 and 0.01916 and -0.01828 and -0.02652 and 0.02399 and 0.0008077 and 0.2216 and -0.004754 and -0.01916 and -0.02225 and 0.2474 and 0.3157 and 0.001138 and -0.0037 and -0.007646 and -0.0005385 and 0.0279
same,"Ca2+ response of individual cells (source data, sheet Suppl Fig1)",[2],0.03642 and 0.005192 and 0.02775 and -0.01323 and -0.002362 and 0.009469
same,"Ca2+ response (delta ratio), K61H/N264H",mGlu1 K61H/N264H mutant; Fig.1e,-0.01365
same,"Ca2+ response of individual cells (source data Suppl Fig1), K61H/N264H","mGlu1 K61H/N264H mutant; single-cell values, K61H/N264H",-0.03782 and -0.01632 and -0.02464 and 0.009846 and -0.01781 and 0.02198 and -0.0009692 and 0.02142 and -0.009608 and -0.02934 and -0.05039 and -0.01796 and -0.007623 and -0.01945
same,"Ca2+ response (delta ratio), WT",WT mGlu1; Fig.1e,0.03319
same,"Ca2+ response of individual cells (source data Suppl Fig1), WT","WT mGlu1; single-cell values #1-#20, WT",-0.005477 and -0.01458 and 0.001892 and -0.01835 and 0.1195 and 0.01671 and 0.05379 and 0.4457 and 0.004608 and -0.002423 and 0.004238 and 0.01116 and 0.1174 and -0.002515 and -0.001223 and -0.001015 and -0.0129 and -0.004708 and 0.01682 and -0.06482
same,"Ca2+ response of individual cells (source data Suppl Fig1), Vec",[3],-0.01071 and 0.01858 and -0.01644 and -0.01578 and -0.0028 and -0.01812 and -0.01767 and -0.01609 and -0.0009 and -0.0156 and -0.02858 and -0.009415 and -0.001254 and -0.01445 and -0.004377 and -0.001977 and -0.0008692 and 0.006415 and 0.01396 and 0.004169
same,"Ca2+ response (delta ratio), P58H/N264H",mGlu1 P58H/N264H mutant; Fig.1e,0.05353
same,"Ca2+ response of individual cells (source data Suppl Fig1), P58H/N264H","mGlu1 P58H/N264H mutant; single-cell values #1-#20, P58H/N264H",0.03009 and 0.04043 and -0.04005 and 0.07079 and 0.04304 and 0.04053 and 0.04913 and 0.06845 and 0.2599 and -0.02289 and 0.03599 and 0.03797 and 0.05281 and 0.1306 and 0.05504 and 0.04257 and 0.06472 and 0.07143 and 0.03615 and 0.003946
same,"Ca2+ response (delta ratio), A59H/A265H",mGlu1 A59H/A265H mutant [4],0.01054
same,"Ca2+ response of individual cells (source data, sheet Suppl Fig1)",[5],-0.01619 and -0.01292 and 0.01722 and -0.04921 and -0.009638 and -0.02348
same,"Ca2+ response of individual cells (source data Suppl Fig1), A59H/A265H",mGlu1 A59H/A265H mutant [6],-0.0004462 and -0.005215 and 0.006554 and -0.007815 and 0.01005 and -0.006508 and -0.02278 and 0.001031 and 0.01621 and 0.004377 and -0.02859 and 0.008423 and 0.09357 and 0.07873
same,"Ca2+ response (delta ratio), A59H/G266H",mGlu1 A59H/G266H mutant [7],-3.81E-05
same,"Ca2+ response of individual cells (source data Suppl Fig1), A59H/G266H",mGlu1 A59H/G266H mutant [8],-0.007338 and -0.001015 and -0.03149 and 0.03385 and 0.01174 and 0.008792 and -0.03335 and -0.003362 and 0.01265 and 0.02216 and 0.003731 and -0.008569 and 0.01177 and -0.002115
same,"Ca2+ response (delta ratio), P57H/N264H",mGlu1 P57H/N264H mutant; Fig.1e,0.01834
same,"Ca2+ response of individual cells (source data Suppl Fig1), P57H/N264H","mGlu1 P57H/N264H mutant; single-cell values #1-#20, P57H/N264H",-0.01177 and -0.0082 and 0.005215 and 0.04513 and 0.01995 and 0.003931 and -0.01436 and 0.02328 and -0.02887 and -0.004769 and -0.02686 and -0.008069 and 0.003369 and 0.01493 and -0.02254 and -0.001223 and 0.3415 and -0.007623 and 0.04519 and -0.0014
same,"Ca2+ response (delta ratio), E60H/N264H",mGlu1 E60H/N264H mutant; Fig.1e,-0.01792
same,"Ca2+ response of individual cells (source data Suppl Fig1), E60H/N264H","mGlu1 E60H/N264H mutant; single-cell values #1-#20, E60H/N264H",-0.0467 and -0.05411 and -0.02817 and -0.02148 and 0.004623 and 0.0091 and -0.02117 and -0.04309 and -0.01538 and -0.003069 and -0.02522 and -0.003569 and 0.01539 and -0.02995 and -0.01439 and -0.004777 and -0.04676 and -0.0003 and -0.01138
same,"Ca2+ response of individual cells (source data, sheet Suppl Fig1)",[9],0.03285 and -0.01932 and -0.04406 and 0.003838 and -0.02115 and 0.02962
